From patent US5543406A, “Inhibitors of 5-α-testosterone reductase” (priority 1994, dated 1996)

Experiments:
[1] = target: T1, Steroid 5-α-Reductase (Homo sapiens, UniProt P31213); experiment: Steroid 5-α-reductase in vitro assay, human prostate microsomes (BPH patients); type: biochemical; details: human prostatic microsomes; 100 nM [3H]-testosterone, 1 mM NADPH, 60 minutes at 37° C.
T1 construct: microsomes derived from prostate tissue of benign prostatic hypertrophy (BPH) patients; from tissue; host or cells: prostate tissue of BPH patients, microsomes
T1 sequence (P31213 1-254): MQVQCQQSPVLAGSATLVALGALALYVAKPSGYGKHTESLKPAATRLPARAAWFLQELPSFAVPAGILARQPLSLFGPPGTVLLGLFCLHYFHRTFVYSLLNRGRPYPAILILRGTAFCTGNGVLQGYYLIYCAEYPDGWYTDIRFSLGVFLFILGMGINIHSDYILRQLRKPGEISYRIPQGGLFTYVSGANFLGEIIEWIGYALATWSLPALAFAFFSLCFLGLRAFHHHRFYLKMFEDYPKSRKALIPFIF

[2] = target: Steroid 5-α-Reductase; experiment: Steroid 5-α-reductase in vitro assay, rat prostate microsomes; type: biochemical; details: rat prostatic microsomes; 100 nM [3H]-testosterone, 1 mM NADPH, 60 minutes at 37° C.; read-out: ID50 Rat

| Compound | IC50 [1] | IC50 [2] |
| --- | --- | --- |
| CCN(CC)C(=O)[C@H]1CC[C@H]2[C@@H]3CNC4=CC(=O)C=C[C@]4(C)[C@H]3CC[C@]12C [Compound 6, 17β-N,N-Diethylcarbamoyl-6-azaandrost-1,4-dien-3-one] | 0.01 to 0.1 µM | 0.1 to 1 µM |
| CCN(CC)C(=O)[C@H]1CC[C@H]2[C@@H]3CNC4=C(Br)C(=O)CC[C@]4(C)[C@H]3CC[C@]12C [Compound 9, 17β-N,N-Diethylcarbamoyl-6-azaandrost-4-bromo-4-en-3-one] | < 0.01 µM | 0.1 to 1 µM |
| CC(C)N(C(=O)[C@H]1CC[C@H]2[C@@H]3CNC4=CC(=O)CC[C@]4(C)[C@H]3CC[C@]12C)C(C)C [Compound 17, 17β-N,N-Diisopropylcarbamoyl-6-azaandrost-4-en-3-one] | < 0.01 µM | 0.1 to 1 µM |
| CC(C)N(C(=O)[C@H]1CC[C@H]2[C@@H]3CN(C)C4=CC(=O)CC[C@]4(C)[C@H]3CC[C@]12C)C(C)C [Compound 18, 17β-N,N-Diisopropylcarbamoyl-6-methyl-6-azaandrost-4-en-3-one] | < 0.01 µM | 0.01 to 0.1 µM |
| CN1C[C@H]2[C@@H]3CC[C@H](C(=O)NC45CC6CC(CC(C6)C4)C5)[C@@]3(C)CC[C@@H]2[C@@]2(C)CCC(=O)C=C12 [Compound 20, 17β-N-1-Adamantylcarbamoyl-6-methyl-6-azaandrost-4-en-3-one] | < 0.01 µM | < 0.01 µM |
| CON(C)C(=O)[C@H]1CC[C@H]2[C@@H]3CNC4=CC(=O)CC[C@]4(C)[C@H]3CC[C@]12C [Compound 21, 17β-N-Methoxy-N-methylcarbamoyl-6-azaandrost-4-en-3-one] | < 0.01 µM | 0.1 to 1 µM |
| C[C@]12CC[C@H]3[C@@H](CNC4=CC(=O)CC[C@@]43C)[C@@H]1CC[C@@H]2C(=O)N1CCOCC1 [Compound 23, 17β-N-Morpholinocarbamoyl-6-azaandrost-4-en-3-one] | 0.01 to 0.1 µM | 0.1 to 1 µM |
| CCN(CC)C(=O)[C@H]1CC[C@H]2[C@@H]3CN(C)C4=CC(=O)C=C[C@]4(C)[C@H]3CC[C@]12C [Compound 27, 17β-N,N-Diethylcarbamoyl-6-methyl-6-azaandrost-1,4-dien-3-one] | 0.01 to 0.1 µM | 0.1 to 1 µM |
| CC(C)(C)NC(=O)[C@H]1CC[C@H]2[C@@H]3CNC4=CC(=O)C=C[C@]4(C)[C@H]3CC[C@]12C [Compound 28, 17β-N-t-Butylcarbamoyl-6-azaandrost-1,4-dien-3-one] | 0.01 to 0.1 µM | 0.1 to 1 µM |
| CN1C[C@H]2[C@@H]3CC[C@H](C(=O)NC(C)(C)C)[C@@]3(C)CC[C@@H]2[C@@]2(C)C=CC(=O)C=C12 [Compound 29, 17β-N-t-Butylcarbamoyl-6-methyl-6-azaandrost-1,4-dien-3-one] | 0.01 to 0.1 µM | 0.1 to 1 µM |
| CN1C[C@H]2[C@@H]3CC[C@H](C(=O)NC45CC6CC(CC(C6)C4)C5)[C@@]3(C)CC[C@@H]2[C@@]2(C)C=CC(=O)C=C12 [Compound 31, 17β-N-1-Adamantylcarbamoyl-6-methyl-6-azaandrost-1,4-dien-3-one] | < 0.01 µM | 0.01 to 0.1 µM |
| C[C@]12CC[C@H]3[C@@H](CNC4=C(Br)C(=O)CC[C@@]43C)[C@@H]1CC[C@@H]2C(=O)NC12CC3CC(CC(C3)C1)C2 [Compound 55, 17β-N-1-Adamantylcarbamoyl-6-azaandrost-4-bromo-4-en-3-one] | < 0.01 µM | < 0.01 µM |
| CC1=C2NC[C@H]3[C@@H]4CC[C@H](C(=O)NC56CC7CC(CC(C7)C5)C6)[C@@]4(C)CC[C@@H]3[C@@]2(C)CCC1=O [Compound 56, 17β-N-1-Adamantylcarbamoyl-6-azaandrost-4-methyl-4-en-3-one] | 0.01 to 0.1 µM | < 0.01 µM |
| CC1=C2N(C)C[C@H]3[C@@H]4CC[C@H](C(=O)NC56CC7CC(CC(C7)C5)C6)[C@@]4(C)CC[C@@H]3[C@@]2(C)CCC1=O [Compound 57, 17β-N-1-Adamantylcarbamoyl-6-methyl-6-azaandrost-4-methyl-4-en-3-one] | 0.01 to 0.1 µM | < 0.01 µM |
| C[C@]12CC[C@H]3[C@@H](CNC4=CC(=O)CC[C@@]43C)[C@@H]1CC[C@@H]2C(=O)NC(c1ccccc1)c1ccccc1 [Compound 58, 17β-N-Diphenylmethylcarbamoyl-6-azaandrost-4-en-3-one] | < 0.01 µM | 0.01 to 0.1 µM |
| C[C@]12CC[C@H]3[C@@H](CNC4=CC(=O)CC[C@@]43C)[C@@H]1CC[C@@H]2C(=O)N(c1ccccc1)c1ccccc1 [Compound 59, 17β-N-Diphenylcarbamoyl-6-azaandrost-4-en-3-one] | < 0.01 µM | 0.1 to 1 µM |
| C[C@]12CC[C@H]3[C@@H](CNC4=CC(=O)CC[C@@]43C)[C@@H]1CC[C@@H]2C(=O)NCC1CC2CCC1C2 (stereo partly drawn) [Compound 60, 17β-N-exo-2-Norbornylmethylcarbamoyl-6-azaandrost-4-en-3-one] | 0.01 to 0.1 µM | < 0.01 µM |
| C[C@]12CC[C@H]3[C@@H](CNC4=CC(=O)CC[C@@]43C)[C@@H]1CC[C@@H]2C(=O)NC1CC2CCC1C2 (stereo partly drawn) [Compound 61, 17β-N-endo-2-Norbornylcarbamoyl-6-azaandrost-4-en-3-one] | 0.01 to 0.1 µM | 0.01 to 0.1 µM |
| CC1=C2NC[C@H]3[C@@H]4CC[C@H](C(=O)NC(C)(C)C)[C@@]4(C)CC[C@@H]3[C@@]2(C)CCC1=O [Compound 62, 17β-N-t-Butylcarbamoyl-6-azaandrost-4-methyl-4-en-3-one] | 0.01 to 0.1 µM | 0.01 to 0.1 µM |
| CC1=C2NC[C@H]3[C@@H]4CC[C@H](C(=O)CC(C)C)[C@@]4(C)CC[C@@H]3[C@@]2(C)CCC1=O [Compound 64, 17β-(1-Oxo-3-methylbutyl)-6-azaandrost-4-methyl-4-en-3-one] | < 0.01 µM | 0.01 to 0.1 µM |
| C[C@]12CC[C@H]3[C@@H](CNC4=CC(=O)CC[C@@]43C)[C@@H]1CC[C@@H]2C(=O)Nc1cccc2cc3ccccc3cc12 [Compound 67, 17β-N-1-Anthracylcarbamoyl-6-azaandrost-4-en-3-one] | < 0.01 µM | < 0.01 µM |
| C[C@]12CC[C@H]3[C@@H](CNC4=CC(=O)CC[C@@]43C)[C@@H]1CC[C@@H]2C(=O)OC1C2CC3CC(C2)CC1C3 (stereo partly drawn) [Compound 73, 17β-Carbo-(2-adamantyl)-oxy-6-azaandrost-4-en-3-one] | < 0.01 µM | < 0.01 µM |
| C[C@]12CC[C@H]3[C@@H](CNC4=CC(=O)CC[C@@]43C)[C@@H]1CC[C@@H]2C(=O)OC12CC3CC(CC(C3)C1)C2 [Compound 74, 17β-Carbo-(1-adamantyl)-oxy-6-azaandrost-4-en-3-one] | < 0.01 µM | 0.01 to 0.1 µM |
| CCN(CC)C(=O)[C@H]1CC[C@H]2[C@@H]3CNC4=CC(=O)C(C)C[C@]4(C)[C@H]3CC[C@]12C (stereo partly drawn) [Compound 75, 17β-N,N-Diethylcarbamoyl-6-azaandrost-2-(α,β)-methyl-4-en-3-one] | 0.01 to 0.1 µM | 0.1 to 1 µM |
| CCN(CC)C(=O)/C=C/[C@H]1CC[C@H]2[C@@H]3CNC4=CC(=O)CC[C@]4(C)[C@H]3CC[C@]12C [Compound 76, 17β-1-(E)-Acrylyl(N,N-diethyl)amide-6-azaandrost-4-en-3-one] | 0.01 to 0.1 µM | 0.01 to 0.1 µM |
| CCN(CC)C(=O)[C@H]1CC[C@H]2[C@@H]3CCNC4=CC(=O)CC[C@]4(C)[C@H]3CC[C@]12C [Compound 77, 17β-N,N-Diethylcarbamoyl-6-aza-B-homoandrost-4-en-3-one] | 0.01 to 0.1 µM | 0.1 to 1 µM |
